Patent US20240398783A1, “Compounds and Pharmaceutical Compositions Comprising Inhibitors of Amyloid Peptide Interactions with Glycosaminoglycans, Methods of Treatment and Use Thereof” (Gismo Therapeutics, Inc., priority 2021, published 2024)
Where a name gives a salt, the structure may show the parent alone. Read-outs that look alike come from different tables or passages of the source.

How the values were obtained:
[1] = target: Tau binding to heparin (HS-GAG) (Homo sapiens, UniProt P10636); assay: Inhibition of Tau binding to immobilized heparin-BSA (ELISA); design: species or system porcine; conditions: for inhibition at 30 µM: read-out: Tau/Heparin Activity (% inhibition class)
Description: (§1) Porcine intestinal mucosa heparin conjugated to Bovine Serum Albumin (Heparin-BSA) was prepared as described (Najjam, S. et al. 1997, Cytokine 12, 1013-1022). Heparin is a sulfated HS-GAG and is commonly used as a HS-GAG in biochemical and binding assays (Lindahl, U. and Kjellen, L. (2013) ibid). Heparin-BSA at 0.01 mg/ml in Phosphate Buffered Saline (PBS; pH 7.4) was added to a 96 well polystyrene ELISA plate (NUNC Cat. No. 449824; 100 μl per well) and incubated Over Night (ON) at 4 degrees Celsius. For negative controls, ELISA plates were coated with BSA instead of Heparin-BSA, using the same procedure. Following the incubation, the plate was washed consecutively, by immersion, with de-ionized water and PBS (pH 7.4). The ELISA plate was then blocked with nonfat milk (2%, 200 μl per well) for 2 hours at Room Temperature (RT) with gentle shaking. Following blocking, the plate was washed with de-ionized water then PBS (pH 7.4). GBAPs were dissolved and diluted in PBS (pH 6.5, supplemented with 0.1% BSA) at desired concentrations, added to the ELISA plates containing immobilized Heparin-BSA (100 μl per well) and incubated for 2 hours at RT with gentle shaking. Following incubation, the plate was washed with de-ionized water and three times with PBS (pH 6.5) plus Tween. Bound GBAP was detected by a monoclonal antibody specific for that GBAP, followed by incubation with secondary antibody conjugated to horseradish peroxidase (HRP). Antibody was diluted in PBS (pH 6.5 supplemented with 1% BSA). Following each incubation with antibody, the plate was washed with de-ionized water and three times with PBS (pH 6.5) wash buffer containing 0.1% Tween. The peroxidase substrate chromogen, TMB (Dako Cat. No. S1599) was added (100 μl per well) to the ELISA plate and incubated at room temperature. After 5 minutes ELISA Stop Solution (hydrochloric acid 1N, sulfuric acid 3N) was added (100 μl per well) to stop the peroxidase catalyzed colorimetric reaction. The Optical Density of the samples was measured at 450 nm using an ELISA plate reader (BioTek Synergy H1). Following color development, the % inhibition compared to control (BSA-coated plates) was determined. IC-50s were calculated using GraphPad Prism software.
The assay was performed as described in Example 43, with the following modifications. Following to coating the plates with Heparin-BSA, plates were washed as described. The compounds were dissolved in DMSO at 10 mM final concentration and further diluted prior to assay. DMSO concentration in the screening well was up to 2%. Individual compounds were co-incubated with Tau on plates containing immobilized heparin. Tau purchased from rPeptide (Cat. No. T1001) was dissolved in DMSO (Sigma Cat. No. D2650), quickly frozen and kept in aliquots at −80 degrees Celsius. Tau dissolved in PBS (pH 6.5, supplemented with BSA, 0.1%) was added to the ELISA plate (100 μl per well) and incubated for 2 hours at RT with gentle shaking. Following the incubation, the plate was washed with de-ionized water and three times with PBS (pH 6.5) plus Tween. Bound Tau was detected by anti-Tau Monoclonal Antibody D-8 (Santa Cruz Cat. No. sc-166060), followed by secondary anti-IgG antibody conjugated to HRP (R&D System, Cat. No. HAF007). Following to color development with TMB, as described in Example 43, the Optical Density of the samples was measured at 450 nm using an ELISA plate reader. Following color development, the % inhibition compared to control (no compound, DMSO control) for every compound was determined.
An example of inhibition curve is shown in FIG. 3 for Inhibitor Compounds 3 and 6. As described in Example 43, Heparin in the form of Heparin-BSA conjugate is used as a source of HS-GAG. For each compound IC-50 value in Tau—heparin-BSA binding assay is shown in […]. In some cases IC-50 was not measured and […] at 30 μM compound concentration is shown instead. […]

[2] = target: T1, SAA binding to heparin (HS-GAG) (Homo sapiens, UniProt P0DJI8); assay: Inhibition of SAA binding to immobilized heparin-BSA (ELISA); design: species or system porcine
T1 sequence (P0DJI8 19-122): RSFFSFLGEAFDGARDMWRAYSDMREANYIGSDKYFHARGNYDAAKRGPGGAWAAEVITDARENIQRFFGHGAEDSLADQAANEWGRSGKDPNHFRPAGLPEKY
Description: as §1
The assay was performed as described in Example 43, with the following modifications. Following to coating the plates with Heparin-BSA, plates were washed as described. The compounds were dissolved in DMSO at 10 mM final concentration and further diluted prior to assay. DMSO concentration in the screening well was up to 2%. Individual compounds were co-incubated with SAA on plates containing immobilized heparin. Serum amyloid A (SAA) from PeProtech (NJ, USA, Cat. No. 300-53) was dissolved in DMSO, quickly frozen and kept in aliquots at −80 degrees Celsius. SAA dissolved in Tris buffer (pH 6.5, supplemented with BSA, 0.1%) was added to the ELISA plate (100 μl per well) and incubated for 2 hours at RT with gentle shaking. Following the incubation, the plate was washed with de-ionized water and three times with Tris Buffered Saline (TBS, pH 6.5) plus Tween. Bound SAA was detected by Anti-SAA Monoclonal Antibody (R&D System Cat. No. MAB30192), followed by secondary anti-IgG antibody conjugated to HRP (R&D System, Cat. No. HAF007). Antibody was diluted in TBS antibody buffer (pH6.5 supplemented with 1% BSA). Following each incubation with antibody, the plate was washed with de-ionized water and three times with TBS (pH6.5) wash buffer containing 0.1% Tween. Following to color development with TMB, as described in Example 43, the Optical Density of the samples was measured at 450 nm using an ELISA plate reader. Following color development, the % inhibition compared to control (no compound, DMSO control) for every compound was determined.
As described in Example 43, Heparin in the form of Heparin-BSA conjugate is used as a source of HS-GAG. For each compound IC-50 value in SAA—heparin-BSA binding assay is shown in μM (micromolar). […]

[3] = Tau/Heparin Activity (IC-50), Tau, heparin-BSA
[4] = read-out: Serum Amyloid A/Heparin Activity (% inhibition class)
[5] = read-out: Serum Amyloid A/Heparin Activity (IC-50); SAA, heparin-BSA
[6] = 30 μM compound; SAA, heparin-BSA; read-out: Serum Amyloid A/Heparin Activity (% inhibition class)
[7] = 30 μM compound, Tau, heparin-BSA

Chain of Tau binding to heparin (HS-GAG) (P10636 with tags, fused parts or gaps): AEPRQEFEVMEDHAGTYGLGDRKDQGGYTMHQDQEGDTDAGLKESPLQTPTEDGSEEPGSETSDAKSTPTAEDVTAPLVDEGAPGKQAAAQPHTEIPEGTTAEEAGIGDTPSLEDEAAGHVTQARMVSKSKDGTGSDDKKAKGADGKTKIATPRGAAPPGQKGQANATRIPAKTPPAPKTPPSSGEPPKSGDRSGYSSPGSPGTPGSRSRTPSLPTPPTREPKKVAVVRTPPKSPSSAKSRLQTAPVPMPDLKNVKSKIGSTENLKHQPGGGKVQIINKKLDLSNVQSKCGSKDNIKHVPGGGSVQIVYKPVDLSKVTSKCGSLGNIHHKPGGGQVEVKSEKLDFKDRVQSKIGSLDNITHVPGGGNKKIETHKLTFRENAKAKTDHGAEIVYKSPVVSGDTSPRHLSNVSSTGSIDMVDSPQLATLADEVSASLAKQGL

Row | SMILES | IC50 [1, 3] | inhibition at 30 µM [1] | IC50 [2, 5] | also measured
1 | COc1cc(Nc2cncc3cc(Cl)ccc23)cnc1-n1cnc(C)c1C [Compound 33, 7-chloro-N-(6-(4,5-dimethyl-1H-imidazol-1-yl)-5-methoxypyridin-3-yl)isoquinolin-4-amine phosphoric acid salt] | 24.7 µM |  |  | inhibition at 30 µM [2, 4]: < 30%
2 | Clc1ccc2c(Nc3ccc(-n4cncn4)nc3)ncnc2c1 [Compound 34, N-(6-(1H-1,2,4-triazol-1-yl)pyridin-3-yl)-7-chloroquinazolin-4-amine phosphoric acid salt] |  | < 30% | 12.4 µM | 
3 | Fc1cc(/C=N/Nc2ccnc3cc(Cl)ccc23)ccc1-n1ccnc1 [Compound 35, (E)-7-chloro-4-(2-(3-fluoro-4-(1H-imidazol-1-yl)benzylidene)hydrazineyl)quinoline hydrochloride] | 41.3 µM |  | 31.8 µM | 
4 | CC(=NNc1ccnc2cc(Cl)ccc12)c1ccc(-n2ccnc2)cc1 [Compound 36, 4-(2-(1-(4-(1H-imidazol-1-yl)phenyl)ethylidene)hydrazineyl)-7-chloroquinoline phosphate] | 28.5 µM |  | 22 µM | 
5 | Cc1cn(-c2ccc(Nc3cncc4cc(Cl)ccc34)cn2)c(C)n1 [Compound 37, 7-chloro-N-(6-(2,4-dimethyl-1H-imidazol-1-yl)pyridin-3-yl)isoquinolin-4-amine phosphoric acid salt] |  | < 30% |  | inhibition at 30 µM [2, 4]: < 30%
6 | Clc1ccc2c(N/N=C/c3ccc(-n4ccnc4)cc3)ccnc2c1 [Compound 38, 4-(2-(4-(1H-imidazol-1-yl)benzylidene)hydrazineyl)-7-chloroquinoline dihydrochloride] | 2.94 µM |  | 14.9 µM | 
7 | CCN1CCN(c2ccc(Nc3ccnc4cc5ccccc5cc34)cc2)CC1 [Compound 39, N-(4-(4-ethylpiperazin-1-yl)phenyl)benzo[g]quinolin-4-amine] | 13.2 µM |  |  | inhibition at 30 µM [2, 6]: > 30%
8 | Cc1ncn(-c2ncc(Nc3ncnc4cc(Cl)ccc34)cc2O)c1C [Compound 40, 5-((7-chloroquinazolin-4-yl)amino)-2-(4,5-dimethyl-1H-imidazol-1-yl)pyridin-3-ol phosphoric acid salt] |  | > 30% |  | inhibition at 30 µM [2, 4]: > 30%
9 | Clc1ccc2c(Nc3ccc(-n4ccnc4)nc3)ncnc2c1 [Compound 41, N-(6-(1H-imidazol-1-yl)pyridin-3-yl)-7-chloroquinazolin-4-amine] |  |  |  | IC50 ([1]; Tau, heparin-BSA, read-out: Tau/Heparin Activity (IC-50)): 14.7 µM; IC50 ([2]; SAA, heparin-BSA; read-out: Serum Amyloid A/Heparin Activity (IC-50)): 12.2 µM
10 | CCN(CC)Cc1cccc(Nc2ccnc3cc(Cl)ccc23)c1 [Compound 42, 7-chloro-N-(3-((diethylamino)methyl)phenyl)quinolin-4-amine] |  |  |  | inhibition at 30 µM [1, 7]: < 30%; inhibition at 30 µM [2, 6]: < 30%
11 | C[n+]1ccn(-c2ccc(Nc3ncnc4cc(Cl)ccc34)cn2)c1 [Compound 43, 1-(5-((7-chloroquinazolin-4-yl)amino)pyridin-2-yl)-3-methyl-1H-imidazol-3-ium iodide phosphoric acid salt] |  | < 30% | 31.5 µM | 
12 | Clc1ccc2c(Nc3ccc(-n4cncn4)nc3)ccnc2c1 [Compound 44, N-(6-(1H-1,2,4-triazol-1-yl)pyridin-3-yl)-7-chloroquinolin-4-amine] |  | > 30% | 17.4 µM | 
13 | CN(C)Cc1cc(Nc2ccnc3cc(Cl)ccc23)ccn1 [Compound 45, 7-chloro-N-(2-((dimethylamino)methyl)pyridin-4-yl)quinolin-4-amine] |  |  | 63.5 µM | inhibition at 30 µM [1, 7]: < 30%
